“And” between values parts separate entries of the source, which are not always exact repeats. Equal values may be shown once.
Columns and labels:
[1] = tested on: wild-type worms (C. elegans N2); format: in vivo, Caenorhabditis elegans
Description: Eggs were transferred to 24-well plates (Corning Inc., NY) containing 1 ml S-medium, without cholesterol, plus 1×10^8 cells/ml E. coli OP50, and grown at 25° C. All assays were performed on 3 day old egg-laying hermaphrodites. For worms treated with the superoxide/dismutase mimetic Euk-134 (Eukarion, Mass.) a single dose was added from a 5 mM stock (in Milli-Q water) on day one. At adulthood, 100 μL of culture media was removed from each well and replaced with 100 μL of paraquat stock solution (final concentration 40 mM). The cultures were then placed back at 25° C. and scored 48 h later for touch-provoked movement using a platinum wire. Immediately following the manual score, SYTOX green dye was added to each well to a final concentration of 1 μM.
We then examined the utility of SYTOX green dye as a score of death due to oxidative stress by incubating 3 day old gravid adult worms in the presence or absence of 40 mM paraquat for 48 hr. Death was first scored by the absence of touch provoked movement and 15 min later by the presence of SYTOX-associated fluorescence (FIG. 6A). […] Following the addition of […] SYTOX green dye and incubation for 15 min at room temperature, death was scored as the presence of fluorescence (FIG. 6A). The mean fraction alive (±SEM) as scored by SYTOX-associated fluorescence was 0.95±0.02 (n=69) in controls and 0.07±0.04 (n=157) in paraquat treated worms.
The utility of SYTOX dye was further tested in an experiment in which worms were cultured in the presence or absence of Euk-134 prior to paraquat exposure (FIG. 6B). […] The mean fraction alive (±SEM) scored by touch-provoked movement was 0.06±0.03 (n=47, 40 mM paraquat) and 0.78±0.11 (n 51, 40 mM paraquat+0.5 mM Euk134). The mean fraction alive (±SEM) scored using SYTOX dye was 0.13±0.00 (n=45, 40 mM paraquat) and 0.92±0.01 (n=51, 40 mM paraquat+0.5 mM Euk134). In each of these experiments the percentage of animals scored as alive using the SYTOX score was always slightly higher than the manual score.

[2] = tested on: wild type C. elegans N2; test: Microplate thermotolerance assay (35° C. heat shock, SYTOX fluorescence score of death); format: in vivo, Caenorhabditis elegans; parameters: thermotolerance compared to untreated wild type worms: dose or concentration left out as unconfirmed; conditions: heat shock 35° C.
Description: Worms (˜10,000 to 20,000) were washed off NGM plates with 10 ml S-basal into a 15 ml tube. After gravity settling for 5 minutes, 9 ml S-basal was aspirated and replaced with fresh 9 ml S-basal. Following a further 2 washes the nematodes were introduced to the sample cup on the COPAS™ BIOSORT at a concentration of 1 worm per μl. Worms were dispensed, 1 animal per well, into either 96 well or 384 well microtitre plates according to the manufacturers instructions. For thermotolerance assays 384 well low volume plates (Greiner Bio-One Inc, Longwood, Fla.) were prepared with 20 μl S-medium containing SYTOX® at a final concentration of 1 μM. […]
The thermotolerance assay was performed in a Fluoroskan Ascent fluorometer (Thermo Labsystems, Finland). The ambient temperature of the fluorometer was set to 35° C. and Ascent software was configured to measure the fluorescence from each well every 30 minutes over a 20-24 hour period with a 20 millisecond measurement time for each well. At this setting a complete 384 well plate could be read within 30 seconds. The excitation wavelength for fluorescence was 485 nm and the emission wavelength 538 nm.
Analysis of individual fluorescence curves was performed using the Fluoroskan Ascent software. A 100% increase in fluorescence over baseline was used a cut-off to define a death event. […]

[3] = tested on: wild type C. elegans N2; conditions: Babar et al. (1999); cited from earlier work
[4] = 40 mM paraquat+0.5 mM Euk134, 48 h

## COc1cccc(C=NCCN=Cc2cccc(OC)c2[O-])c1[O-].[Cl-].[Mn+3] [Euk-134]
[1]; [4]
  mean fraction alive (±SEM), scored by touch-provoked movement: 0.78±0.11
  mean fraction alive (±SEM), scored using SYTOX dye: 0.92±0.01

## O=c1cc(N2CCOCC2)oc2c(-c3ccccc3)cccc12 [LY294002, 2-(4-Morpholinyl)-8-phenyl-4H-1-benzopyran-4-one]
[2]; 100 nM LY294002
  effect of the drug on thermotolerance: no significant effect
[2]; grown from eggs to 4 day adults in S-medium at 20° C.
  thermotolerance compared to untreated wild type worms: significantly more thermotolerant
[3]
  thermotolerance of treated wild type worms (previously shown): confers thermotolerance similar to that seen in age-1(hx546)

## C[n+]1ccc(-c2cc[n+](C)cc2)cc1 [paraquat]
[1]; 40 mM paraquat alone, 48 h, 3 day old gravid adults, 15 min SYTOX
  mean fraction alive (±SEM), SYTOX-associated fluorescence score: 0.07±0.04 and 0.13±0.00

— patent US20080267880A1, “AUTOMATED METHOD FOR HIGH THROUGHTOUT SCREENING OF NEMATODES” (priority 2002, published 2008)
